# B1: WaaPHisC: recombinant P. aeruginosa WaaP with C-terminal 6×His tag, heptose/tyrosine kinase (protein, UniProt Q9HUF7 1-268, looked up)
# Lipopolysaccharide core …: MRLVLEEPFKRLWNGRDPFEAVEALQGKVYRELEGRRTLRTEVDGRGYFVKIHRGIGWGEIAKNLLTAKLPVLGARQEWQAIRRLHEAGVATMTAVAYGERGSDPARQHSFIVTEELAPTVDLEVFSQDWRERPPPPRLKRALVEAVARMVGDMHRAGVNHRDCYICHFLLHTDKPVSADDFRLSVIDLHRAQTRDATPKRWRNKDLAALYFSALDIGLTRRDKLRFLRTYFRRPLREILRDEAGLLAWMERKAEKLYERKQRYGDLL
# modifications: C-terminal 6xHis tag
# notes: recombinant P. aeruginosa WaaP with C-terminal 6×His tag, heptose/tyrosine kinase
# Experiments:
# [1] = molecular target: T1, WaaP from E. coli (WaaPEc) (Escherichia coli, UniProt Q9R9D6); conditions: cited from earlier work
# T1 construct: His-tag (N)
# T1 sequence (Q9R9D6 whole entry): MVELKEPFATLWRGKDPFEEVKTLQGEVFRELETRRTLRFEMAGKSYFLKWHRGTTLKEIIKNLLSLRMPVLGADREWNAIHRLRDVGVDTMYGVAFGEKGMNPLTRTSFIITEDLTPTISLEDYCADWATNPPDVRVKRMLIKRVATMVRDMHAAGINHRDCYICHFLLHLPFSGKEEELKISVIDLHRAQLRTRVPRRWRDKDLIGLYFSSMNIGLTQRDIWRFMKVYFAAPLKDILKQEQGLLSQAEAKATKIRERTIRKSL
# E. coli F470 (waaP−) = experiment: MIC of novobiocin and SDS, in vivo complementation assay; assay type: cell-based
# Excerpt: (§1) Site-directed mutagenesis and in vivo complementation assay—waaP was amplified by polymerase chain reaction (PCR) from pCOREc1 (de Kievit and Lam, 1997) with the flanking up- and down-stream primers ^5′[…]^3′ (SEQ ID NO: 3) and ^5′[…]^3′ (SEQ ID NO: 4) containing Baam HI and Hind III respectively. The PCR product was cloned into the complementation vector pUCP26 (West, 1994) as a positive control for complementation assay. Mutations of waaP were introduced by the method of “overlapping extension” as described by Horton (Horton, 1993) using PCR with the flanking primers as well as the primers shown below. K69A mutation was introduced with the primer (only up-strand was described here) ^5′[…]^3′ (SEQ ID NO: 5); K69R with ^5′[…]^3′ (SEQ ID NO: 6); D163A with ^5′[…]^3′ (SEQ ID NO: 7); and D163E with ^5′[…]^3′ (SEQ ID NO: 8). Underlined nucleotides indicated the mutations. The PCR products were then cloned into pUCP26 at Bam HI and Hind III sites respectively, and transformed into E. coli F470 7waaP- (Yethon 1998). Constructs of the mutations of waaP were sequenced to confirm the mutation. In vivo complementation was tested for the minimum inhibition concentration (MIC) of SDS and novobiocin, respectively according to Walsh, et al. 2000. E. coli F470 7waaP- was used as the negative control.
# (§2) To validate the accuracy of the alignment comparisons in FIG. 2, site-directed mutagenesis of waaPPa was performed targeting on K^69 and […], respectively. The effect of the site-directed mutation was evaluated by their ability to complement waaP-Ec. It is noteworthy that the complementation assay was performed using waaP-Ec since waaP mutation is lethal to P. aeruginosa. In Table I, the complementation of waaP-Ec by wild type waaPPa increased the MICs of waaP-Ec by 3 and 30 times to novobiocin and SDS, respectively. However, the MICs of all the mutants were at the same level as that of waaP-Ec.
# [2] = test system: E. coli F470 (waaP−)/waaPPa(K69R); experiment: as above; assay type: cell-based
# Excerpt: as §1, §2
# [3] = test system: E. coli F470 (waaP−)/waaPPa(D163E); experiment: as above; assay type: cell-based
# Excerpt: as §1, §2
# [4] = test system: E. coli F470 (waaP−)/waaPPa(K69A); experiment: as above; assay type: cell-based
# Excerpt: as §1, §2
# [5] = test system: E. coli F470 (waaP−)/waaPPa; experiment: as above; assay type: cell-based; conditions: for increase of the MIC of waaP-Ec by complementation with wild type waaPPa: versus E. coli F470 waaP− mutant
# Excerpt: as §1, §2
# [6] = test system: E. coli F470 (waaP−)/waaPPa(D163A); experiment: as above; assay type: cell-based
# Excerpt: as §1, §2
# F470 (wild type) = experiment: as above; assay type: cell-based, E. coli
# Excerpt: Site-directed mutagenesis and in vivo complementation assay—waaP was amplified by polymerase chain reaction (PCR) from pCOREc1 (de Kievit and Lam, 1997) with the flanking up- and down-stream primers ^5′[…]^3′ (SEQ ID NO: 3) and ^5′[…]^3′ (SEQ ID NO: 4) containing Baam HI and Hind III respectively. The PCR product was cloned into the complementation vector pUCP26 (West, 1994) as a positive control for complementation assay. Mutations of waaP were introduced by the method of “overlapping extension” as described by Horton (Horton, 1993) using PCR with the flanking primers as well as the primers shown below. K69A mutation was introduced with the primer (only up-strand was described here) ^5′[…]^3′ (SEQ ID NO: 5); K69R with ^5′[…]^3′ (SEQ ID NO: 6); D163A with ^5′[…]^3′ (SEQ ID NO: 7); and D163E with ^5′[…]^3′ (SEQ ID NO: 8). Underlined nucleotides indicated the mutations. The PCR products were then cloned into pUCP26 at Bam HI and Hind III sites respectively, and transformed into E. coli F470 7waaP- (Yethon 1998). Constructs of the mutations of waaP were sequenced to confirm the mutation. […]
# To validate the accuracy of the alignment comparisons in FIG. 2, site-directed mutagenesis of waaPPa was performed targeting on K^69 and […], respectively. The effect of the site-directed mutation was evaluated by their ability to complement waaP-Ec. […]
# WaaPHisC = molecular target: T2, WaaPHisC (Pseudomonas aeruginosa, UniProt Q9HUF7); assay type: biochemical, P. aeruginosa
# T2 construct: made in house; host or cells: E. coli BL21(DE3)pLysS, vector pET30a(+)
# Experimental: Antigen coating was accomplished by adding 50 μl LPS or enzyme reaction mixture to each well and then mixing with equal amount of chloroform-ethanol ([…]/EtOH) (1:10, v/v)). The plate was incubated at room temperature in the fume hood (flow rate at 150 ft·min^−1) overnight to allow the evaporation of the solvent. The ELISA was performed according to Bantroch et al. (1994) (Bantroch, 1994) with the following modifications. […] For the colorimetric method (Bantroch, 1994), the ELISA was developed at 37° C. for 2 h and the optical density at 405 nm was determined on a microplate reader (Flow Laboratories, Mississauga, ON). For the chemiluminescence development, 100 μl of the chemiluminescence substrate CDP-Star® Ready-to-Use with Emerald-II™ (CDP*) (Applied Biosystems, Bedford, Mass.) with 1:5 (v/v) diluted in diethanolamine buffer (9.6% (v/v) and 0.01% (w/v) MgCl2, pH 9.8) was added to each well. After incubation at room temperature for 20 min, the response of chemiluminescence was measured on a 1420-VICTOR^2 Multilabel Counter (Wallac, Montreal, QC) using chemiluminescence program.
# The reaction mixture was incubated at 37° C. for 30 min (15 min for kinetics experiments) and quenched by the addition of 50 μl chloroform/ethanol (1:10) solution. The plate was then left at room temperature in the fume hood overnight and subjected to ELISA the next morning. PAO1-LPS was used as the standard to quantify phosphorylated LPS.
# Therefore, the reactions on the kinetics studies measured the phosphorylation within the initial 15 min.
molecule,measurement,setting,value
"Nc1ncnc2c1ncn2[C@@H]1O[C@H](COP(=O)(O)OP(=O)(O)OP(=O)(O)O)[C@@H](O)[C@H]1O [ATP, adenosine triphosphate]",Km,[1],130 µM
"CO[C@@H]1[C@@H](OC(N)=O)[C@@H](O)[C@H](Oc2ccc3c(O)c(NC(=O)c4ccc(O)c(CC=C(C)C)c4)c(=O)oc3c2C)OC1(C)C [Novobiocin, novobiocin]",MIC,E. coli F470 (waaP−); Escherichia coli,50 µg/mL
same,MIC,[2]; Escherichia coli,50 µg/mL
same,MIC,[3]; Escherichia coli,50 µg/mL
same,MIC,[4]; Escherichia coli,50 µg/mL
same,MIC,[5]; Escherichia coli,150 µg/mL
same,increase of the MIC of waaP-Ec by complementation with wild type waaPPa,[5],3 times
same,MIC,[6]; Escherichia coli,25 µg/mL
same,MIC,F470 (wild type); Escherichia coli,> 200 µg/mL
CCCCCCCCCCCCOS(=O)(=O)[O-].[Na+] [SDS],MIC,E. coli F470 (waaP−); strain E. coli F470 (waaP−),400 µg/mL
same,MIC,[2]; strain E. coli F470 (waaP−)/waaPPa(K69R),400 µg/mL
same,MIC,[3]; strain E. coli F470 (waaP−)/waaPPa(D163E),200 µg/mL
same,MIC,[4]; strain E. coli F470 (waaP−)/waaPPa(K69A),400 µg/mL
same,MIC,[5]; strain E. coli F470 (waaP−) complemented with wild type waaPPa,"12,500 μg.ml^−1"
same,increase of the MIC of waaP-Ec by complementation with wild type waaPPa,[5],30 times
same,MIC,[6]; strain E. coli F470 (waaP−)/waaPPa(D163A),400 µg/mL
same,MIC,F470 (wild type); strain F470 (wild type),">50,000 μg.ml^−1"
B1,Vmax,WaaPHisC; phosphorylation of HF-LPS,408.24 pmol/min
same,kcat,WaaPHisC; phosphorylation of HF-LPS,0.4538 s⁻¹
same,enzyme activity remained after storage,WaaPHisC; storage at −20° C. for 7 days,about 70%

# From patent publication US20030017518A1, “Non-radio-active assay of LPS kinases” (priority 2001, published 2003)
